Among the data in US20160362408A1 (Bayer Pharma Aktiengesellschaft, priority 2013, published 2016) are MEC values, retold here.

Molecules are shown by their SMILES.

This assay concerns the target T1, recombinant guanylate cyclase reporter cell line (Rattus norvegicus, UniProt P19686+P20595).
T1 construct: expressed in transfected cells
T1 sequence (P19686 1-690): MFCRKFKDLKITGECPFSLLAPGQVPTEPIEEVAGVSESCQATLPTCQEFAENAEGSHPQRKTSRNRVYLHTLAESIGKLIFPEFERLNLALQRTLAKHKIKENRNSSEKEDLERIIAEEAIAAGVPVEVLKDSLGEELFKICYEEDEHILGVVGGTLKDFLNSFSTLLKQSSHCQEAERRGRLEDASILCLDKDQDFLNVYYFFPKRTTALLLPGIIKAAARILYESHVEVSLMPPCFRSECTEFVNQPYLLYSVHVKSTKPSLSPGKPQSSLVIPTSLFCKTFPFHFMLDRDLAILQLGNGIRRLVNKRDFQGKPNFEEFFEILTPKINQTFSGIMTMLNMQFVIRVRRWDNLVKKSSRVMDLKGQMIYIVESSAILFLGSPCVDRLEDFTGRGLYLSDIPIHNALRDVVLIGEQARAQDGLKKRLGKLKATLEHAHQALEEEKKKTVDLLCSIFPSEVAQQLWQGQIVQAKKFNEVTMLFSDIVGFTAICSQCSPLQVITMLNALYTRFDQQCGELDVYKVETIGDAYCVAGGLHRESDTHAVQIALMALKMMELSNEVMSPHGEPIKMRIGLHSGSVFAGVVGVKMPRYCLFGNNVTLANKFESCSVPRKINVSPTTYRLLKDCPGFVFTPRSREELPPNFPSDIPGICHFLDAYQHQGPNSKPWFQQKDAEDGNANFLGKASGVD
T1 sequence (P20595 1-619): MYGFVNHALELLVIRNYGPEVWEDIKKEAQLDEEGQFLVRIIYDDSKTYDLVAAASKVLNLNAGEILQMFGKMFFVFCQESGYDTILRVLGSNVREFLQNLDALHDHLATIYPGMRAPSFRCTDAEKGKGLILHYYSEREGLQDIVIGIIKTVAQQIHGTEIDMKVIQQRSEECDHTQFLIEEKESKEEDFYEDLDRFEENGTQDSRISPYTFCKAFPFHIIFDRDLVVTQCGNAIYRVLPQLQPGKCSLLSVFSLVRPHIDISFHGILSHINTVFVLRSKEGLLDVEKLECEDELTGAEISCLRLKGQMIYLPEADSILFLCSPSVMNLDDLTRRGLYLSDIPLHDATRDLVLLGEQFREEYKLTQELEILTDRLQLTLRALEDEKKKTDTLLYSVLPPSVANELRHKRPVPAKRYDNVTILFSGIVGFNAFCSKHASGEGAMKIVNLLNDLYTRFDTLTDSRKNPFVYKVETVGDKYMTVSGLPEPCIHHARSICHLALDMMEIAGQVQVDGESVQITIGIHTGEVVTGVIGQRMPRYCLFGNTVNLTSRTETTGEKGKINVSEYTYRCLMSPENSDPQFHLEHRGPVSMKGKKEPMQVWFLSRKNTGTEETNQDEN
Briefly: Effect on a recombinant guanylate cyclase reporter cell line. The class given is cell-based. Particulars: MEC = minimum effective concentration; in some cases mean values for individual determinations. The essentials: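 Compounds tested in a recombinant guanylate cyclase reporter cell line per a published method. Potency expressed as minimum effective concentration (MEC), sometimes as mean of individual determinations.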
Regarding `COc1cccc(C)c1NC(=O)c1c(C)nc2c(OCc3c(F)cccc3F)cccn12` [Example 15], the MEC is 0.3 µM.
As to `Cc1nc2c(OCc3c(F)cccc3F)cccn2c1C(=O)Nc1nccs1` [Example 145, 8-[(2,6-difluorobenzyl)oxy]-2-methyl-N-(1,3-thiazol-2-yl) imidazo[1,2-a]pyridine-3-carboxamide], the MEC amounted to 3.0 µM.
In the case of `Cc1nc2c(OCc3c(F)cccc3F)cc(Cl)cn2c1C(=O)Nc1ccc(N2CCNCC2)c(F)c1` [Example 109, 6-chloro-8-[(2,6-difluorobenzyl)oxy]-N-[3-fluoro-4-(piperazin-1-yl)phenyl]-2-methylimidazo[1,2-a]pyridine-3-carboxamide], the MEC stood at 3.0 µM.
The same measure for `Cc1nc2c(OCc3c(F)cccc3F)cc(Cl)cn2c1C(=O)Nc1cnn(C(C)C)c1` [Example 45, 6-chloro-8-[(2,6-difluorobenzyl)oxy]-N-(1-isopropyl-1H-pyrazol-4-yl)-2-methylimidazo[1,2-a]pyridine-3-carboxamide]: 0.3 µM.
Regarding `Cc1nc2c(OCc3c(F)cccc3F)cccn2c1C(=O)Nc1cn(C)nc1CO` [Example 81], the MEC amounted to 1.0 µM.
The same measure for `CC(=O)Nc1ccc(NC(=O)c2c(C)nc3c(OCc4c(F)cccc4F)cccn23)cc1C(F)(F)F` [Example 18]: 0.3 µM; for `Cc1nn(CC(F)(F)F)cc1NC(=O)c1c(C)nc2c(OCc3c(F)cccc3F)cccn12` [Example 33, 8-[(2,6-difluorobenzyl)oxy]-2-methyl-N-[3-methyl-1-(2,2,2-trifluoroethyl)-1H-pyrazol-4-yl]imidazo[1,2-a]pyridine-3-carboxamide]: 1.0 µM.
For the molecule `Cc1nc2c(OCc3c(F)cccc3F)cc(Cl)cn2c1C(=O)Nc1cnn(CC(F)(F)F)c1` [Example 44, 6-chloro-8-[(2,6-difluorobenzyl)oxy]-2-methyl-N-[1-(2,2,2-trifluoroethyl)-1H-pyrazol-4-yl]imidazo[1,2-a]pyridine-3-carboxamide], the MEC was 1.0 µM.
For the molecule `Cc1nc2c(OCc3c(F)cccc3F)cccn2c1C(=O)Nc1c(C(C)(C)O)n[nH]c1C` [Example 88], the MEC worked out at 0.65 µM.
For the molecule `Cc1nc2c(OCc3c(F)cccc3F)cccn2c1C(=O)Nc1n[nH]c2ccccc12` [Example 80, 8-[(2,6-Difluorobenzyl)oxy]-N-(1H-indazol-3-yl)-2-methylimidazo[1,2-a]pyridine-3-carboxamide], the MEC worked out at 0.3 µM.
The same measure for `Cc1ccc2c(NC(=O)c3c(C)nc4c(OCc5c(F)cccc5F)cccn34)c(C)ccc2n1` [Example 63]: 0.3 µM; for `Cc1nc2c(OCc3c(F)cccc3F)cccn2c1C(=O)Nc1n[nH]c2ccc(F)cc12` [Example 115, 8-[(2,6-Difluorobenzyl)oxy]-N-(5-fluoro-1H-indazol-3-yl)-2-methylimidazo[1,2-a]pyridine-3-carboxamide]: 1.0 µM; for `COc1cccc(NC(=O)c2c(C)nc3c(OCc4c(F)cccc4F)cccn23)c1` [Example 13]: 0.3 µM.
`Cc1nc2c(OCc3c(F)cccc3F)cccn2c1C(=O)Nc1ccnc2ccc(F)cc12` [Example 54, 8-[(2,6-Difluorobenzyl)oxy]-N-(6-fluoroquinolin-4-yl)-2-methylimidazo[1,2-a]pyridine-3-carboxamide]: the MEC amounted to 0.03 µM.
Turning to `Cc1nn(C)c(N2CCOCC2)c1NC(=O)c1c(C)nc2c(OCc3c(F)cccc3F)cccn12` [Example 34, 8-[(2,6-difluorobenzyl)oxy]-N-[1,3-dimethyl-5-(morpholin-4-yl)-1H-pyrazol-4-yl]-2-methylimidazo[1,2-a]pyridine-3-carboxamide], the MEC came to 1.0 µM.
For the molecule `Cc1nc2c(OCc3c(F)cccc3F)cccn2c1C(=O)Nc1cccc(C(C)O)c1` (stereo not drawn) [Example 17], the MEC is 0.3 µM.
The same measure for `Cc1nc2c(OCc3c(F)cccc3F)cc(Cl)cn2c1C(=O)Nc1c(C(F)(F)F)nn(CCO)c1C` [Example 117, 6-chloro-8-[(2,6-difluorobenzyl)oxy]-N-[1-(2-hydroxyethyl)-5-methyl-3-(trifluoromethyl)-1H-pyrazol-4-yl]-2-methylimidazo[1,2-a]pyridine-3-carboxamide]: 0.1 µM.
The same measure for `Cc1nc2c(OCc3c(F)cccc3F)cccn2c1C(=O)Nc1cnn(CCN2CCN(C)CC2)c1` [Example 133, 8-[(2,6-difluorobenzyl)oxy]-2-methyl-N-{1-[2-(4-methylpiperazin-1-yl)ethyl]-1H-pyrazol-4-yl)imidazo [1,2-a]pyridine-3-carboxamide]: 10 µM; for `Cc1nn(CC(F)(F)F)c(C)c1NC(=O)c1c(C)nc2c(OCc3c(F)cccc3F)cccn12` [Example 32, 8-[(2,6-difluorobenzyl)oxy]-N-[3,5-dimethyl-1-(2,2,2-trifluoroethyl)-1H-pyrazol-4-yl]-2-methylimidazo[1,2-a]pyridine-3-carboxamide]: 1.0 µM; for `Cc1nc2c(OCc3c(F)cccc3F)cccn2c1C(=O)Nc1cnn2ccccc12` [Example 1, 8-[(2,6-Difluorobenzyl)oxy]-2-methyl-N-(pyrazolo[1,5-a]pyridin-3-yl)imidazo[1,2-a]pyridine-3-carboxamide]: 0.1 µM.
The same measure for `Cc1nc2c(OCc3c(F)cccc3F)cccn2c1C(=O)Nc1cnn(CCN(C)C)c1` [Example 134, 8-[(2,6-difluorobenzyl)oxy]-N-{1-[2-(dimethylamino)ethyl]-1H-pyrazol-4-yl}-2-methylimidazol[1,2-a] pyridine-3-carboxamide]: 3.0 µM; for `Cc1nc2c(OCc3c(F)cccc3F)cccn2c1C(=O)Nc1cnn(CCN2CCOCC2)c1` [Example 132, 8-[(2,6-difluorobenzyl)oxy]-2-methyl-N-{1-[2-(morpholin-4-yl)ethyl]-1H-pyrazol-4-yl} imidazo[1,2-a]pyridine-3-carboxamide]: 1.0 µM; for `Cc1nc2c(OCc3c(F)cccc3F)cccn2c1C(=O)Nc1ccnc2ccc(C(F)(F)F)cc12` [Example 79]: 0.1 µM.
As for `Cc1nc2c(OCc3c(F)cccc3F)cccn2c1C(=O)Nc1cc(F)cc(F)c1N` [Example 143, N-(2-Amino-3,5-difluorophenyl)-8-[(2,6-difluorobenzyl)oxy]-2-methylimidazo[1,2-a]pyridine-3-carboxamide], the MEC came to 0.3 µM.
For the molecule `Cc1nc(NC(=O)c2c(C)nc3c(OCc4c(F)cccc4F)cccn23)oc1C` [Example 144, 8-[(2,6-difluorobenzyl)oxy]-N-(4,5-dimethyl-1,3-oxazol-2-yl)-2-methylimidazo[1,2-a]pyridine-3-carboxamide], the MEC turned out to be 3.0 µM.
The same measure for `Cc1cc(OCc2c(F)cccc2F)c2nc(C)c(C(=O)Nc3c(C)nn(CCO)c3C)n2c1` [Example 87]: 0.3 µM; for `CCn1nc(C)c(NC(=O)c2c(C)nc3c(OCCC(C(F)(F)F)C(F)(F)F)cc(C)cn23)c1C` [Example 147, N-(1-Ethyl-3,5-dimethyl-1H-pyrazol-4-yl)-2,6-dimethyl-8-[4,4,4-trifluoro-3-(trifluoromethyl)butoxy]imidazo[1,2-a]pyridine-3-carboxamide]: 3.0 µM.
`Cc1nc2c(OCc3c(F)cccc3F)cccn2c1C(=O)Nc1c(C(F)(F)F)nn(CCO)c1C` [Example 116, 8-[(2,6-Difluorobenzyl)oxy]-N-[1-(2-hydroxyethyl)-5-methyl-3-(trifluoromethyl)-1H-pyrazol-4-yl]-2-methylimidazo[1,2-a]pyridine-3-carboxamide]: the MEC is 0.5 µM.
The same measure for `Cc1n[nH]c(C)c1NC(=O)c1c(C)nc2c(OCc3cccc(F)c3F)cc(Cl)cn12` [Example 53, 6-chloro-8-[(2,3-difluorobenzyl)oxy]-N-(3,5-dimethyl-1H-pyrazol-4-yl)-2-methylimidazo[1,2-a]pyridine-3-carboxamide]: 1.0 µM.
The same measure for `Cc1nc2c(OCc3c(F)cccc3F)cccn2c1C(=O)Nc1ccc(N2CCN(C)CC2)c(C(F)(F)F)c1` [Example 97]: 1.0 µM.
